Data reported in paper doi:10.1101/2021.10.07.463234v2 (biorxiv, 2021).
Counter-ions that a name gives are not always drawn.

Each molecule was assayed against SARS-CoV-2 Mac1 (Severe acute respiratory syndrome coronavirus 2, UniProt P0DTD1) (assay: biochemical). Settings: 100 µM; inhibitor.

Compound	%inhibition [%]
Nc1c(Br)cc(Br)cc1CN[C@H]1CC[C@H](O)CC1 [Ambroxol HCl]	9.799
Nc1c2c(nc3ccccc13)CCCC2 [Tacrine HCl]	0.07061
COCCc1ccc(OCC(O)CNC(C)C)cc1 (stereo not drawn) [Metoprolol]	3.241
COc1cc(O)c(C(=O)Nc2nc(C(=O)NCCN(C(C)C)C(C)C)cs2)cc1OC [Acotiamide]	14.33
COc1cc2c(cc1OC)C(=O)C(CC1CCN(Cc3ccccc3)CC1)C2 (stereo not drawn) [Donepezil]	5.95
C[C@@H](CN1CC(=O)NC(=O)C1)N1CC(=O)NC(=O)C1 [Dexrazoxane]	12.37
Cc1nnc(C(=O)NC(C)(C)c2nc(C(=O)NCc3ccc(F)cc3)c(O)c(=O)n2C)o1 [Raltegravir potassium]	7.113
CCN1CC(CCN2CCOCC2)C(c2ccccc2)(c2ccccc2)C1=O (stereo not drawn) [Doxapram HCl]	9.802
Nc1ccc(S(=O)(=O)Nc2ncccn2)cc1 [Sodium sulfadiazine]	0
COc1ccccc1N1CCN(CC(O)COc2cccc3ccccc23)CC1 (stereo not drawn) [Naftopidil]	1.252
CNC(=O)c1cc(Oc2ccc(NC(=O)Nc3ccc(Cl)c(C(F)(F)F)c3)c(F)c2)ccn1 [Regorafenib (BAY 73-4506)]	2.978
COCCCN1CCC(NC(=O)c2cc(Cl)c(N)c3c2OCC3)CC1 [Prucalopride Succinate]	23.93
Cc1ccc(C(=O)c2ccc(CC(=O)O)n2C)cc1 [Tolmetin]	4.72
CC(C)c1nc(N(C)S(C)(=O)=O)nc(-c2ccc(F)cc2)c1/C=C/[C@@H](O)C[C@@H](O)CC(=O)O [Rosuvastatin]	7.223
CCOCCn1c(N2CCCN(C)CC2)nc2ccccc21 [Emedastine]	0
O=C1CN(/N=C/c2ccc(-c3ccc([N+](=O)[O-])cc3)o2)C(=O)N1 [Dantrolene sodium hemiheptahydrate]	2.991

Same assay, conditions: read-out: %inhibition

Compound	inhibition at 100 µM [%]
Cc1cccc(C)c1OCC(=O)N[C@@H](Cc1ccccc1)[C@@H](O)C[C@H](Cc1ccccc1)NC(=O)[C@H](C(C)C)N1CCCNC1=O [Lopinavir]	0
CCCCc1ncc(/C=C(\Cc2cccs2)C(=O)O)n1Cc1ccc(C(=O)O)cc1 [Eprosartan Mesylate]	26.7
Cc1cn(-c2cc(NC(=O)c3ccc(C)c(Nc4nccc(-c5cnccn5)n4)c3)cc(C(F)(F)F)c2)cn1 [Radotinib]	1.77
Clc1ccc(C(Cn2ccnc2)OCc2ccsc2Cl)c(Cl)c1 (stereo not drawn) [Tioconazole]	7.13
CN1CCN2c3ncccc3Cc3ccccc3C2C1 (stereo not drawn) [Mirtazapine]	7.99
CC(=O)c1cc2c(o1)C(=O)c1ccccc1C2=O [Napabucasin]	6.24
Cc1c(NC(=O)c2cccnc2)c(=O)n(-c2ccccc2)n1C [Nifenazone]	3.55
CCOc1nc2cccc(C(=O)O)c2n1Cc1ccc(-c2ccccc2-c2nnn[nH]2)cc1 [Candesartan]	0
N[C@H]1CONC1=O [L-Cycloserine]	1.65
CN(C)CCC[C@@]1(c2ccc(F)cc2)OCc2cc(C#N)ccc21 [Escitalopram Oxalate]	0
CCOC(=O)O[C@]1(C(=O)OCCl)CC[C@H]2[C@@H]3CCC4=CC(=O)C=C[C@]4(C)[C@H]3[C@@H](O)C[C@@]21C [Loteprednol etabonate]	0
CN(C(=O)CN(CCO)CC(=O)N(C)C(C)(C)Cc1ccccc1)C(C)(C)Cc1ccccc1 [Oxethazaine]	19.2
C[C@@H]1CC(=O)NN=C1c1ccc(NN=C(C#N)C#N)cc1 [Levosimendan]	0
CC(C)c1cc(C(=O)N2Cc3ccc(CN4CCN(C)CC4)cc3C2)c(O)cc1O [Onalespib (AT13387)]	5.85
CC(C)OC(=O)CCC/C=C\C[C@@H]1[C@@H](/C=C/C(F)(F)COc2ccccc2)[C@H](O)C[C@@H]1O [Tafluprost]	4.8
NC[C@@H]1O[C@H](O[C@H]2[C@@H](O)[C@H](O[C@@H]3[C@@H](O)[C@H](N)C[C@H](N)[C@H]3O[C@H]3O[C@H](CN)[C@@H](O)[C@H](O)[C@H]3N)O[C@@H]2CO)[C@H](N)[C@@H](O)[C@@H]1O [Neomycin sulfate]	0
Nc1ccc(S(=O)(=O)Nc2cncc(Cl)n2)cc1 [Sulfalozine sodium]	0
CCCCNc1ccc(C(=O)OCCN(C)C)cc1 [Tetracaine HCl]	9.17
CC(C)(O/N=C(\C(=O)N[C@@H]1C(=O)N2C(C(=O)[O-])=C(C[n+]3ccccc3)CS[C@H]12)c1csc(N)n1)C(=O)O [Ceftazidime Pentahydrate]	0
CCOC(=O)CC(=O)N1CCSC1COc1ccccc1OC (stereo not drawn) [Moguisteine]	13

Compound	inhibition at 100 µM [%]
COC(=O)CCc1ccc(OCC(O)CNC(C)C)cc1 (stereo not drawn) [Esmolol HCl]	12
CNC[C@H](O)c1cccc(O)c1 [Phenylephrine HCl]	14.5
COC(=O)c1ccccc1O [Methyl salicylate]	7.14
Clc1cccc(Cl)c1NC1=NCCN1 [Clonidine HCl]	0
N=C(N)NC(=N)NCCc1ccccc1 [Phenformin HCl]	30.5
N=C(N)NN [Aminoguanidine hydrochloride]	4.16
C=C=CCNC(=O)c1ccc(F)cc1 [Diastase]	0
NS(=O)(=O)Cc1noc2ccccc12 [Zonisamide]	0
COc1ccccc1OCC(O)CO (stereo not drawn) [Guaifenesin]	33.3
Nc1c(CC(=O)O)cccc1C(=O)c1ccc(Br)cc1 [Bromfenac Sodium]	8.6
CC[C@H]1OC(=O)[C@H](C)[C@@H](O[C@H]2C[C@@](C)(OC)[C@@H](O)[C@H](C)O2)[C@H](C)[C@@H](O[C@@H]2O[C@H](C)C[C@H](N(C)C)[C@H]2O)[C@](C)(O)C[C@@H](C)/C(=N\OCOCCOC)[C@H](C)[C@@H](O)[C@]1(C)O [Roxithromycin]	0.445
O=C1c2cccc3c2[C@H](CCC3)CN1[C@@H]1CN2CCC1CC2 [Palonosetron HCl]	0
Nc1nc(O)c2ncn(CCC(CO)CO)c2n1 [Penciclovir]	14.9
NS(=O)(=O)c1cc(Cl)c(Cl)c(S(N)(=O)=O)c1 [Dichlorphenamide (Diclofenamide)]	3.01
Cc1occc(=O)c1O [Maltol]	15.5
O=S(=O)(O)c1cc(O)ccc1O [Ethamsylate]	0
CC(C)(C)Cn1c(N)nc2ccc(-c3[nH]c(C(C)(C)C)nc3-c3ccc(F)cc3)nc21 [Ralimetinib (LY2228820)]	0.925
CO[C@H]1C(=O)[C@]2(C)[C@@H](OC)C[C@H]3OC[C@@]3(OC(C)=O)[C@H]2[C@H](OC(=O)c2ccccc2)[C@]2(O)C[C@H](OC(=O)[C@H](O)[C@@H](NC(=O)OC(C)(C)C)c3ccccc3)C(C)=C1C2(C)C [Cabazitaxel]	25.1
COc1ccc(C2CNC(=O)C2)cc1OC1CCCC1 (stereo not drawn) [Rolipram]	0
Cc1[nH]c(/C=C2\C(=O)Nc3ccccc32)c(C)c1CCC(=O)O [Orantinib (TSU-68, SU6668)]	16.7

Compound	inhibition at 100 µM [%]
CCCCC1=NC2(CCCC2)C(=O)N1Cc1ccc(-c2ccccc2-c2nnn[nH]2)cc1 [Irbesartan]	2.32
CC(C)(C(=O)O)c1ccc(C(O)CCCN2CCC(C(O)(c3ccccc3)c3ccccc3)CC2)cc1 (stereo not drawn) [Fexofenadine HCl]	9.61
CC1(C)NC(=O)N(c2ccc([N+](=O)[O-])c(C(F)(F)F)c2)C1=O [Nilutamide]	3.89
O=C(/C=C\n1cnc(-c2cc(C(F)(F)F)cc(C(F)(F)F)c2)n1)NNc1cnccn1 [Selinexor (KPT-330)]	0
CN[C@@H]1[C@H](O[C@H]2[C@H](O[C@H]3[C@H](O)[C@@H](O)[C@H](N=C(N)N)[C@@H](O)[C@@H]3N=C(N)N)O[C@@H](C)[C@]2(O)C=O)O[C@@H](CO)[C@H](O)[C@H]1O [Streptomycin sulfate]	0
C[C@H](NC(=O)C(=O)Nc1ccccc1C(C)(C)C)C(=O)N[C@@H](CC(=O)O)C(=O)COc1c(F)c(F)cc(F)c1F [Emricasan]	21
COc1ccc(/C=C/C(=O)Nc2ccccc2C(=O)O)cc1OC [Tranilast]	0
NC12CC3CC(CC(C3)C1)C2 [Amantadine HCl]	0
CC(C)=CCOc1ccc(/C=C/C(=O)c2ccc(OCC=C(C)C)cc2OCC(=O)O)cc1 [Sofalcone]	14.1
CN(C)CCc1c[nH]c2ccc(C[C@H]3COC(=O)N3)cc12 [Zolmitriptan]	0
COc1cc(C(C)=O)ccc1OCCCN1CCC(c2noc3cc(F)ccc23)CC1 [Iloperidone]	0
CC(C)C[C@H](NC(=O)CNC(=O)[C@H](Cc1ccc(O)cc1)NC(=O)[C@H](CO)NC(=O)[C@H](Cc1c[nH]c2ccccc12)NC(=O)[C@H](Cc1cnc[nH]1)NC(=O)[C@@H]1CCC(=O)N1)C(=O)N[C@@H](CCCNC(=N)N)C(=O)N1CCC[C@H]1C(=O)NCC(N)=O [Gonadorelin Acetate]	0
CC(=O)c1ccc(S(=O)(=O)NC(=O)NC2CCCCC2)cc1 [Acetohexamide]	17.8
C[C@@H](O)[C@H]1C(=O)N2C(C(=O)O)=C(S[C@@H]3CN[C@H](C(=O)Nc4cccc(C(=O)O)c4)C3)[C@H](C)[C@H]12 [Ertapenem sodium]	2.44
CCC(NC(C)C)C(O)c1ccc(O)c(O)c1 (stereo not drawn) [Isoetharine Mesylate]	17.6
CCCC(=O)OCOC(=O)C1=C(C)NC(C)=C(C(=O)OC)C1c1cccc(Cl)c1Cl (stereo not drawn) [Clevidipine Butyrate]	0
CCCCOC(=O)c1ccc(N)cc1 [Butamben]	2.1
CC[C@H]1[C@@H]2C[C@H]3[C@@H]4N(C)c5ccccc5[C@]45C[C@@H]([C@H]2[C@H]5O)N3[C@@H]1O [Ajmaline]	18.1
C[C@]12CC[C@@H]3c4ccc(O)cc4CC[C@H]3[C@@H]1CC[C@@H]2O [Estradiol]	0
